Molecules are shown by their SMILES.

Usually melting point stands for the temperature, or range, at which the solid turns liquid.

In turn, `COc1cc(C(=O)O)ccc1Cc1cccc2ccc(C(N)=O)cc12` gave a melting point of 283 to 285 °C.
Then `Cc1oc(-c2ccccc2)nc1COc1ccc(COc2nn(-c3ccccc3)cc2CC(=O)O)cn1`, with 164 to 165 °C.
Turning to `CC(C)C(NC(=O)OC(C)(C)C)C(=O)OC1CC(n2cc(C=CBr)c(=O)[nH]c2=O)OC1CCl` (stereo not drawn), the melting point was 87 to 88 °C.
With `COc1ccc2c(C)c3c(c(-c4ccc(F)cc4)c2c1)CNC3=O` the figure was 236 to 238 °C.
Molecule `Cc1cc(NCCCCCCBr)ccc1O` yielded a melting point of 144 to 146 °C.
Then `Nc1ccc(NNC=O)cc1`, with 122 to 125 °C.
Then `COc1cc2c(cc1Nc1ncc(Cl)c(Nc3ccccc3S(=O)(=O)N(C)C)n1)CCN(CCCN1CCOCC1)C(=O)C2`, with 78 to 87 °C; and `CCOC(=O)C(C)Oc1cc(C(=O)O)c(O)c2ccccc12` (stereo not drawn), with 75 °C; and `CC(C)(C)OC(=O)Nc1cc(OCC#N)c(-c2ccc(F)cc2)cc1[N+](=O)[O-]`, with 148 °C.
Then `CCCn1cc(C(=O)NCc2ccc(Cl)cc2)c(=O)c2cc(C#CCO)ccc21`, with 183 to 184 °C; and `COC1(C2=NCCN2)COc2c(F)cccc2O1` (stereo not drawn), with > 260 °C.
The molecule `COc1cc2c(cc1OC)C1(C3OCCO3)CNCC2O1` (stereo not drawn) registered a melting point of 107 to 109 °C.
In the case of `NC(=O)c1ccc(-c2ccc3[nH]c(=O)ccc3c2)cc1`, the melting point was > 320 °C.
Then `CC12CCC3c4ccc(C(=O)O)cc4CCC3C1CCC2C(=O)c1ccco1` (stereo not drawn), with 180 to 182 °C.
In turn, `CCOC(=O)c1c(C(F)(F)F)nn(-c2c(Cl)cc(Cl)cc2Cl)c1N` had a melting point of 114 to 116 °C.
Then `O=c1c2ccccc2[nH]n1CSc1ccccc1`, with 167 to 168 °C.
With `CN1C2CCC1CN(c1ccc(-c3ccccc3)nn1)C2` the figure was 151 °C; with `CCn1c(=O)oc2cc([N+](=O)[O-])ccc21`, 133 to 135 °C; with `COc1cc(-n2cc(F)c(F)c2)ccc1-n1cc(OC)c(=O)c(-c2ccnn2-c2ccccc2)n1`, 206 to 207 °C.
Regarding `COC(=O)c1nc(C#N)ccc1OCc1ccccc1`, the melting point is 104 to 105 °C.
With `CC(O)C#Cc1cc(F)c2ncc(C(=O)NCc3ccc(Cl)cc3)c(O)c2c1` (stereo not drawn) the figure was 232 to 234 °C; with `CCOC(=O)C1=C(C)NC(=S)N(C(=O)OCC)C1c1cccc(C#N)c1` (stereo not drawn), 155 to 156 °C.
As to `CC1(C)CC(Nc2nc(Cl)nc(NC3CC(C)(C)NC(C)(C)C3)n2)CC(C)(C)N1`, the melting point was 270 °C.
Then `O=C(c1ccc(Cl)cc1)C1(n2cncn2)CC1`, with 78 °C.
With `CCCN(Cc1ccc(-c2ccccc2-c2nnnn2C(c2ccccc2)(c2ccccc2)c2ccccc2)cc1)c1nc(C)nnc1C(=O)OCC` the figure was 178 to 179 °C; with `COc1ccccc1N1CCN(CCC2C(=O)NCN3CCC4SC=C(C4=O)C(=O)C23)CC1` (stereo not drawn), 162 to 164 °C.
With `COc1ccc2c(c1)C1(CO2)C(=O)N(C)c2ccccc21` (stereo not drawn) the figure was 159 to 161 °C.
With `O=C(c1cccs1)c1cnn2c(-c3cccc(NCC4CC=CCC4)c3)ccnc12` (stereo not drawn), the melting point was in the range of 78 to 81 °C.
In the case of `CC(C)Oc1ccc(OCc2ccccc2)cc1-c1nc2ccc(C#N)nc2[nH]1`, the melting point was in the range of 214 to 215 °C.
Then `CCCCN(CCCC)c1ccc(C=CC2=C(C#N)C(=C(C#N)C#N)OC2(C)C)c(OC)c1`, with 222 to 226 °C.
Then `CC(C)(C)NC(=O)c1nn(-c2ccc(F)cc2F)c2c1C1CC3CC(C1)CC2C3`, with 188 to 190 °C.
Then `O=C1CCc2cccc(Oc3ccccc3Cl)c2O1`, with 123 to 125 °C; and `COCCn1cc(C(=O)NCc2ccc(Cl)cc2)c(=O)c2cc(CO)sc21`, with 193 °C.
For `CC(=O)N(C)c1cc(C(=O)C=CN(C)C)ccc1F`, the melting point was 131 to 132 °C.
With `Cc1ccc(S(=O)(=O)Oc2ccc(S(=O)(=O)C3(C(=O)C(C)C)CC3)cc2)cc1` the figure was 106 to 107 °C; with `CCOC(=O)c1ccc(N2CCN(Cc3cnc4c(c3)NC(=O)[C@@H]3CCCN43)CC2)cc1`, 242 °C.
Then `O=C(c1ccc([N+](=O)[O-])cc1)c1ccc2[nH]c(=O)cc(-c3cccc(Cl)c3)c2c1`, with 227 °C.
`CC(C1CCC(Oc2ccc(F)cc2)C1)N(O)C(N)=O` (stereo not drawn) displayed a melting point of 111 to 112 °C.
Molecule `CCN(CCCOC)c1nc(C)nc2c1nnn2-c1ccc(C(C)C)cc1Br` gave a melting point of 109 to 110 °C.
Consider `CCOCc1nc2c(N)nc(C)c(C)c2n1CCCNC(=O)N1CCOCC1`, for which the melting point lay in the range of 140 to 142 °C.
Take `N#CN=C(NCCSCc1nccs1)NCCSCc1nccs1`: the melting point lay within 66 to 68 °C.
`CC1=C(c2ccccc2)C(=O)N(C(C)(C)C(=O)Nc2cccc(Cl)c2)CO1`: the melting point amounted to 114 °C.
Regarding `CNc1cc(NC)cc(C(=O)CS(C)(=O)=O)c1`, the melting point lay in the range of 144 to 146 °C.
For `CN(C(=O)C(F)(F)F)C1(C)CN(c2c(F)cc3c(=O)c(C(=O)O)cn(C4CC4)c3c2F)C1`, the melting point fell in the range of 291 to 294 °C.
With `NC(=O)C(CCCCCCCCNC(=O)c1ccccc1O)CC(=O)O` (stereo not drawn) the figure was 123 to 125 °C.
With `C=C(C)Cc1cc(C(=O)O)ccc1OCc1ccc(F)cc1`, the melting point fell in the range of 164 to 165 °C.
Then `CNC1=NN(C(=O)c2cccc(C(F)(F)F)c2)C(C)(C)S1`, with 111 to 115 °C; and `C=CCn1c(COCc2ccc(OC)cc2)nc(C(C)C)c1Sc1cc(Cl)cc(Cl)c1`, with 100 to 102 °C; and `O=C1c2c(cc(O)c(Cl)c2Cl)CC1c1ccccc1` (stereo not drawn), with 250 to 252 °C.
As to `CN1CCN(CCCCCC(=O)N2c3ccccc3C(=O)Nc3cccnc32)CC1`, the melting point was 179 to 181 °C.
Then `O=C(Nc1cc2nc(-c3ccc(C(=O)C4CCCCC4)cc3)[nH]c2cn1)c1ccccn1`, with 258 °C; and `C=CCc1cc(-c2nc(C)no2)ccc1O`, with 135 to 137 °C; and `Cc1ccc(N2C=NC3CCCCC3C2=O)cc1` (stereo not drawn), with 79 to 82 °C.
In the case of `NCc1noc(-c2nn(Cc3ccccc3)c3ccccc23)n1`, the melting point lay in the range of 118 to 119 °C.
`CC(C)(C)OC(=O)Nc1ccc(-c2cccc(F)c2F)cc1N` displayed a melting point of 78 °C.
With `CC(=O)C1CCC2C3CCC4CC(O)C(N5CCOC(c6ccccc6)(c6ccccc6)C5)CC4(C)C3C(=O)CC12C` (stereo not drawn) the figure was 248 to 250 °C; with `Cn1cc(-c2cc(-c3cnc4[nH]cc(C(F)(F)F)c4c3)ccn2)n(-c2ccc(C(C)(C)C#N)cc2)c1=O`, 159 °C.
Then `CC(=O)Oc1ccc2c(c1)C(=O)N(C(C)=O)C(C(Cl)(Cl)Cl)O2` (stereo not drawn), with 138 to 140 °C; and `CCCCc1oc2ccccc2c1-c1ncc(-c2ccc3c(Br)c(OCc4ccc(C(=O)O)cc4)ccc3c2)o1`, with 281 to 283 °C.
Molecule `CCN(CC)CCCNc1nnc(COC)c2c1cc1n2CCCC1` returned a melting point of 145 to 147 °C.
With `CS(=O)(=O)c1ccc(Oc2cccc(C(=O)Nc3ccc(F)cc3)n2)cc1` the figure was 134 to 135 °C; with `COc1ccc(C=C2c3ccccc3C(=O)c3ccccc32)cc1OCC(=O)N1CCC(CO[N+](=O)[O-])CC1`, 63 to 65 °C; with `Cc1ccc(-c2ncn(-c3ccc(OC(F)(F)C(F)(F)F)cc3)n2)cc1`, 130 to 132 °C.
Then `Ic1ccc(OC23CC4CC(CC(C4)C2)C3)cc1`, with 115 to 118 °C; and `CCCCCCC(=Cc1ccc(-c2nnn[nH]2)cc1)C(OC)=C1SC(=S)NC1=O`, with > 300 °C; and `COc1ccc(COc2ccc3c(c2)OC(C)(C)C3c2ccc(C(C)C)cc2)cc1` (stereo not drawn), with 86 to 88 °C.
With `O=C(CCl)NCc1ccc(-c2cc3c(Nc4ccc(F)c(Cl)c4)ncnc3[nH]2)cc1`, the melting point fell in the range of 320 to 325 °C.
Then `COC(=O)C1=C(CO)NC(C)=C(C(=O)OCC(C)(C)C)C1c1ccccc1C#N` (stereo not drawn), with 178 to 180 °C; and `CCOC(=O)c1cn(N)c2cc3c(cc2c1=O)OCO3`, with 251 to 253 °C.
Then `CC(=O)SCCC1NSc2cc(S(N)(=O)=O)c(Cl)cc2N1` (stereo not drawn), with 192 to 195 °C.
With `CCc1cccc2c(C(N)CO)c[nH]c12` (stereo not drawn) the figure was 84 to 86 °C; with `CCOC(=O)c1ccc(N2CCC(NCC(O)COc3cccc4[nH]c(=O)[nH]c34)CC2)nc1` (stereo not drawn), 191 to 193 °C; with `Cc1ccc(C(=O)O)nn1`, 174 °C.
As to `COc1ccc2c(cc3n2Cc2ccccc2-3)n1`, the melting point is 192 to 193 °C.
Then `COc1ccc(-c2ccc(C(C)=O)cc2Cl)c(OC)c1`, with 115 to 118 °C.
Molecule `Cc1nc2cc(CN3CCN(C(c4ccccc4)c4ccccc4)CC3)ccc2n1C` gave a melting point of 206 °C.
Then `O=C(O)CCNC(=O)C(=Cc1ccccc1)CS`, with 80 °C.
Then `Cc1ccc(S(=O)(=O)c2ccc(N3CCC4(CC3)OCCO4)cc2)cc1`, with 164 to 165 °C; and `CN1C(=O)C(c2ccncc2)(c2cccc(O)c2)N=C1N` (stereo not drawn), with 245 to 247 °C; and `CCS(=O)(=O)N1CCNC1=O`, with 114 to 116 °C.
Then `COc1cc(C)nc(NC(=O)NS(=O)(=O)c2c(C)nn(C)c2S(=O)(=O)N(C)C)n1`, with 215 to 217 °C; and `Cn1cc(C(=O)C(Cl)Cl)c(=O)c(-c2cccc(C(F)(F)F)c2)c1`, with 184 to 186 °C; and `CON=C(c1cnco1)c1ccccc1COc1cc(C)ccc1C`, with 90 to 91 °C.
As for `c1ccc(C(N=C2CCCC2)c2ccccc2)cc1`, the melting point was 96 to 100 °C.
With `CC(C)(C)c1ccc(-c2nnc(N)nc2N)cc1` the figure was 275 to 276 °C; with `Cc1nc2cccc(C)n2c(=O)c1CCN1CCN(c2cccc(Cl)c2)CC1`, 116 to 118 °C; with `COCCCNC(=O)c1cnn(C)c1C(=O)Nc1ccn2nc(-c3ccccc3)nc2c1`, 191 to 193 °C.
With `COC(=O)C(O)C(O)C(O)C(O)C(=O)OC` (stereo not drawn) the figure was 90.2 to 90.7 °C.

The record behind these values is a melting point compilation (Tetko et al.; mined from patent text by program, amines drawn as free bases though some values may be those of a salt).
